Data reported in the supplement of paper PMC11061612.

Legend:
Assay in all cases: Bliss excess, mean over the matrix (fraction); higher = more synergy
[1] = test system: DB (B-Cell Non-Hodgkin's Lymphoma)
How it was run: (§1)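 After 24 hours at 37°C and 5% CO2 in 1536-well plates, cells in DMEM/F12 or RPMI plus 10% FBS received two-drug dose matrices for 72 hours. Viability came from CellTiter-Glo 2.0 luminescence and was scaled as inhibition, anchored at 0 by vehicle wells and at 1 by blank wells. Combination Emax is taken as the second-highest inhibition in the matrix, and Bliss excess as the observed combination effect less EA + EB − EA·EB, with EA and EB the single-agent effects.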

[2] = test system: DOV13 (Ovarian Carcinoma)
How it was run: as §1

[3] = test system: DSH1 (Bladder Carcinoma)
How it was run: as §1

[4] = test system: ES7 (Ewing's Sarcoma)
How it was run: as §1

[5] = test system: G-292-Clone-A141B1 (Osteosarcoma)
How it was run: as §1

[6] = test system: HT-29 (Colorectal Carcinoma)
How it was run: as §1

[7] = test system: IHH-4 (Thyroid Gland Carcinoma)
How it was run: as §1

[8] = test system: KARPAS-1106P (B-Cell Non-Hodgkin's Lymphoma)
How it was run: as §1

[9] = test system: KARPAS-620 (Plasma Cell Myeloma)
How it was run: as §1

[10] = test system: MDA-MB-231 (Breast Carcinoma)
How it was run: as §1

[11] = test system: MFH-ino (Other Solid Carcinomas)
How it was run: as §1

[12] = test system: NCI-H2595 (Mesothelioma)
How it was run: as §1

[13] = test system: SW1088 (Low Grade Glioma)
How it was run: as §1

[14] = test system: TE-5 (Esophageal Squamous Cell Carcinoma)
How it was run: as §1

Compound	Bliss excess [1]	Bliss excess [2]	Bliss excess [3]	Bliss excess [4]	Bliss excess [5]	Bliss excess [6]	Bliss excess [7]	Bliss excess [8]	Bliss excess [9]	Bliss excess [10]	Bliss excess [11]	Bliss excess [12]	Bliss excess [13]	Bliss excess [14]
C=CCn1c(=O)c2cnc(Nc3ccc(N4CCN(C)CC4)cc3)nc2n1-c1cccc(C(C)(C)O)n1 [AZD1775] + CCc1c2c(nc3ccc(O)cc13)-c1cc3c(c(=O)n1C2)COC(=O)[C@]3(O)CC [SN-38] (first compound max 1 µM, partner max 0.3 µM)	-0.0366	-0.0262	-0.0654	-0.0228	0.023	0.027	-0.0485	-0.0946	-0.0145	0.0031	-0.0756	-0.0096	-0.0641	-0.0583
C=CCn1c(=O)c2cnc(Nc3ccc(N4CCN(C)CC4)cc3)nc2n1-c1cccc(C(C)(C)O)n1 [AZD1775] + Nc1ccn([C@@H]2O[C@H](CO)[C@@H](O)C2(F)F)c(=O)n1 [Gemcitabine] (first compound max 1 µM, partner max 0.3 µM)	–	0.016	-0.0833	0.0319	-0.0405	0.0422	0.0306	0.0085	0.026	0.0686	-0.0087	-0.0765	-0.0468	-0.0678
CN(CCO)CC[C@H](CSc1ccccc1)Nc1ccc(S(=O)(=O)NC(=O)c2ccc(N3CCC([C@@H](O)c4ccccc4-c4ccc(Cl)cc4)CC3)cc2)cc1S(=O)(=O)C(F)(F)F [AZD4320] + CC(=O)O[C@H]1C(=O)[C@@]2(C)[C@H]([C@H](OC(=O)c3ccccc3)[C@]3(O)C[C@H](OC(=O)[C@H](O)[C@@H](NC(=O)c4ccccc4)c4ccccc4)C(C)=C1C3(C)C)[C@]1(OC(C)=O)CO[C@@H]1C[C@@H]2O [Paclitaxel] (first compound max 1 µM, 7x7, partner max 3 µM)	0.043	0.0136	0.163	0.0227	0.157	0.0034	-0.0267	0.0929	0.0111	0.111	0.0474	0.0192	0.0303	0.176
CN(CCO)CC[C@H](CSc1ccccc1)Nc1ccc(S(=O)(=O)NC(=O)c2ccc(N3CCC([C@@H](O)c4ccccc4-c4ccc(Cl)cc4)CC3)cc2)cc1S(=O)(=O)C(F)(F)F [AZD4320] + CS(=O)(=O)CCNCc1ccc(-c2ccc3ncnc(Nc4ccc(OCc5cccc(F)c5)c(Cl)c4)c3c2)o1 [Lapatinib] (first compound max 1 µM, 7x7, partner max 10 µM)	0.0048	0.0488	0.0511	0.0769	0.0467	-0.0113	-0.0096	-0.0212	0.0697	0.0241	-0.0732	0.0034	-0.0544	0.0542
CN(CCO)CC[C@H](CSc1ccccc1)Nc1ccc(S(=O)(=O)NC(=O)c2ccc(N3CCC([C@@H](O)c4ccccc4-c4ccc(Cl)cc4)CC3)cc2)cc1S(=O)(=O)C(F)(F)F [AZD4320] + Nc1ccn([C@@H]2O[C@H](CO)[C@@H](O)C2(F)F)c(=O)n1 [Gemcitabine] (first compound max 1 µM, 7x7, partner max 0.3 µM)	-0.029	-0.0366	0.0381	-0.0271	-0.0015	0.0191	0.0132	-0.0009	-0.0168	-0.0245	-0.0252	-0.0542	-0.0628	0.0559
Cc1c2c(nn1C)CSCc1cc(n(C)n1)CSc1cc(c3ccccc3c1)OCCCc1c(C(=O)O)n(C)c3c-2c(Cl)ccc13 [AZD5991] + CC(=O)O[C@H]1C(=O)[C@@]2(C)[C@H]([C@H](OC(=O)c3ccccc3)[C@]3(O)C[C@H](OC(=O)[C@H](O)[C@@H](NC(=O)c4ccccc4)c4ccccc4)C(C)=C1C3(C)C)[C@]1(OC(C)=O)CO[C@@H]1C[C@@H]2O [Paclitaxel] (first compound max 1 µM, 7x7, partner max 3 µM)	0.0342	-0.0492	0.0523	-0.06	0.0565	-0.1	-0.0341	0.132	-0.0174	0.0049	-0.0321	-0.0504	-0.0192	-0.0112
Cc1c2c(nn1C)CSCc1cc(n(C)n1)CSc1cc(c3ccccc3c1)OCCCc1c(C(=O)O)n(C)c3c-2c(Cl)ccc13 [AZD5991] + CS(=O)(=O)CCNCc1ccc(-c2ccc3ncnc(Nc4ccc(OCc5cccc(F)c5)c(Cl)c4)c3c2)o1 [Lapatinib] (first compound max 1 µM, 7x7, partner max 10 µM)	0.0597	0.0072	0.0013	0.0148	-0.0185	-0.0216	0.011	0.0482	0.0054	-0.0852	-0.0513	-0.0398	-0.0137	0.0198
Cc1c2c(nn1C)CSCc1cc(n(C)n1)CSc1cc(c3ccccc3c1)OCCCc1c(C(=O)O)n(C)c3c-2c(Cl)ccc13 [AZD5991] + Nc1ccn([C@@H]2O[C@H](CO)[C@@H](O)C2(F)F)c(=O)n1 [Gemcitabine] (first compound max 1 µM, 7x7, partner max 0.3 µM)	0.06	-0.0605	0.053	0.0062	-0.0587	0.0168	0.0122	-0.0216	0.031	-0.0947	-0.0495	-0.0053	-0.0666	0.0112
C[C@@H]1COCCN1c1cc(C2([S@](C)(=N)=O)CC2)nc(-c2ccnc3[nH]ccc23)n1 [AZD6738] + C1CC(C1)(C(=O)[O-])C(=O)[O-].N.N.[Pt+2] [Carboplatin] (first compound max 10 µM, 7x7, partner max 10 µM)	-0.0019	-0.0236	-0.0559	0.0089	0.0001	-0.0194	0.0159	-0.0247	-0.0135	-0.0294	-0.0397	-0.0413	-0.0426	-0.0163
C[C@@H]1COCCN1c1cc(C2([S@](C)(=N)=O)CC2)nc(-c2ccnc3[nH]ccc23)n1 [AZD6738] + Nc1ccn([C@@H]2O[C@H](CO)[C@@H](O)C2(F)F)c(=O)n1 [Gemcitabine] (first compound max 10 µM, 7x7, partner max 0.3 µM)	-0.0172	0.0205	0.0108	0.0367	0.0421	0.0492	0.0816	0.0614	0.135	0.0736	-0.0585	0.0326	-0.0399	-0.0102
Cc1cc2ncnn2cc1Nc1ncc2c(n1)n(C1CCOCC1)c(=O)n2C [AZD7648] + COc1cc([C@@H]2c3cc4c(cc3[C@@H](O[C@@H]3O[C@@H]5CO[C@@H](C)O[C@H]5[C@H](O)[C@H]3O)[C@H]3COC(=O)[C@H]23)OCO4)cc(OC)c1O [Etoposide] (first compound max 10 µM, 7x7, partner max 10 µM)	0.0998	0.0276	0.0627	0.052	0.0701	0.0162	0.185	0.0551	0.0051	0.0776	0.0513	0.0252	0.032	-0.0089
C[C@@H](Nc1cc(F)cc(F)c1)c1cc(C(=O)N(C)C)cc2c(=O)cc(N3CCOCC3)oc12 [AZD8186] + C1CN(CCC1(C(=O)N[C@@H](CCO)C2=CC=C(C=C2)Cl)N)C3=NC=NC4=C3C=CN4 [AZD5363] (first compound max 10 µM, 7x7, partner max 10 µM)	-0.0191	0.026	-0.0297	0.0043	-0.0518	-0.0172	0.0233	-0.0234	0.0152	0.0036	-0.0258	-0.0537	-0.0474	0.0152
C[C@@H](Nc1cc(F)cc(F)c1)c1cc(C(=O)N(C)C)cc2c(=O)cc(N3CCOCC3)oc12 [AZD8186] + CC(=O)c1c(C)c2cnc(Nc3ccc(N4CCNCC4)cn3)nc2n(C2CCCC2)c1=O [Palbociclib] (first compound max 10 µM, 7x7, partner max 10 µM)	0.0797	-0.224	0.104	0.115	-0.0001	0.0614	0.125	-0.04	0.15	0.0305	0.0173	-0.0917	0.0658	0.0301
C[C@@H](Oc1cc(-c2cnn(C3CCNCC3)c2)cnc1N)c1c(Cl)ccc(F)c1Cl [Crizotinib] + CC1=C(C(=CC=C1)Cl)NC(=O)C2=CN=C(S2)NC3=CC(=NC(=N3)C)N4CCN(CC4)CCO [Dasatinib] (first compound max 10 µM, 7x7, partner max 2 µM)	-0.0805	0.067	-0.0536	0.0273	0.028	-0.0002	0.0456	-0.026	0.0032	0.0116	0.0577	0.0519	0.016	0.0287
C[C@@H](Oc1cc(-c2cnn(C3CCNCC3)c2)cnc1N)c1c(Cl)ccc(F)c1Cl [Crizotinib] + Cn1cnc2c(F)c(Nc3ccc(Br)cc3Cl)c(C(=O)NOCCO)cc21 [Selumetinib] (first compound max 10 µM, 7x7, partner max 10 µM)	-0.0472	-0.0732	-0.117	-0.0134	-0.0223	-0.018	-0.0246	0.0052	0.0729	0.0323	-0.026	-0.064	-0.0256	-0.0366
CS(=O)(=O)CCNCc1ccc(-c2ccc3ncnc(Nc4ccc(OCc5cccc(F)c5)c(Cl)c4)c3c2)o1 [Lapatinib] + Cn1cnc2c(F)c(Nc3ccc(Br)cc3Cl)c(C(=O)NOCCO)cc21 [Selumetinib] (first compound max 10 µM, 7x7, partner max 10 µM)	0.0388	-0.0166	-0.067	-0.0355	-0.0566	0.0362	-0.0136	0.0436	0.0746	-0.0236	-0.0468	-0.0548	-0.0524	-0.0241
O=C(c1cc(Cc2n[nH]c(=O)c3ccccc23)ccc1F)N1CCN(C(=O)C2CC2)CC1 [Olaparib] + CC1(C)CCC(CN2CCN(c3ccc(C(=O)NS(=O)(=O)c4ccc(NCC5CCOCC5)c([N+](=O)[O-])c4)c(Oc4cnc5[nH]ccc5c4)c3)CC2)=C(c2ccc(Cl)cc2)C1 [Venetoclax] (first compound max 10 µM, 7x7, partner max 1 µM)	0.0522	-0.0322	-0.0401	0.0282	-0.0566	-0.0304	-0.0118	-0.0169	0.003	0.0001	-0.0622	-0.0577	-0.0611	-0.0458
